Test results: PubChem BioAssay AID1996
In brackets after ≈: the same amount, converted by molar mass.

Conditions: buffer; pH 7.4; 200.0 µM

Structure (SMILES)	solubility kinetic
CCOCCOc1cccc(C(=O)NC(c2ccccc2)C(C)C)c1 (stereo not given)	6.2 µg/mL (≈ 18.2 µM)
O=C(O)C1CCCCC1C(=O)NCCc1ccc(F)cc1 (stereo not given)	> 44 µg/mL
NS(=O)(=O)c1cccc(NC(=O)CCC(=O)c2cccs2)c1	> 50.8 µg/mL
Cc1[nH]c(=O)c(C#N)c(C)c1CSc1ncccn1	> 40.8 µg/mL
CC(=O)N1CCN(c2ccc(NC(=O)c3ccco3)cc2)CC1	> 47 µg/mL
O=C(COC(=O)Cc1ccc(Cl)cc1Cl)NC1CC1	> 45.3 µg/mL
CC(C(=O)NC(c1ccccc1)c1ccccc1)N1CCOCC1 (stereo not given)	44.9 µg/mL (≈ 138 µM)
N#Cc1ccc(-c2nc3ccc(Br)cc3c(=O)n2O)cc1	18.1 µg/mL (≈ 52.9 µM)
CCCCCCN=C1CC(C)(C)CC(=O)/C1=C(/O)CCC	19.5 µg/mL (≈ 66.5 µM)
CCn1c(=O)c2ccccc2n2c(SCC(N)=O)nnc12	> 45.5 µg/mL
O=C(CN1C(=O)C2CCCCC2C1=O)Nc1nccs1 (stereo not given)	> 44 µg/mL
CC(C)Oc1ccc(C2NC(=O)c3ccccc3O2)cc1 (stereo not given)	2.6 µg/mL (≈ 9.18 µM)
Cc1ccc(S(=O)(=O)N2CCOCC2)cc1NC(=O)COC(=O)c1ccc(Cl)s1	3 µg/mL (≈ 6.54 µM)
Oc1ccc(N2Cc3ccccc3C2)cc1	9.9 µg/mL (≈ 46.9 µM)
CC(=O)Nc1cc(Br)ccc1O	32.6 µg/mL (≈ 142 µM)
COc1ccc(N/C=C/C(=O)c2ccc(OC)c(OC)c2)cc1	< 0.7 µg/mL
CN1CCCC(C(=O)c2ccc(-c3ccccc3)cc2)C1 (stereo not given)	27.3 µg/mL (≈ 97.7 µM)
Cc1ccc(S(=O)(=O)NC(=O)Nc2ccccc2)cc1	41.8 µg/mL (≈ 144 µM)
CC(=O)Nc1ccc(Oc2ccc3c(c2)C(=O)NC3=O)cc1	16.9 µg/mL (≈ 57 µM)
CC1(/[N+]([O-])=C/c2cccc(Cl)c2)CCCCC1=O (stereo not given)	36.2 µg/mL (≈ 136 µM)

Structure (SMILES)	solubility kinetic
CN(C)CCCNC(=O)c1cc(C(=O)Cc2ccccc2)c[nH]1	> 47 µg/mL
O=C(/C=C/c1ccccc1[N+](=O)[O-])OC1CCCCC1=O (stereo not given)	4.5 µg/mL (≈ 15.6 µM)
Cc1cc(C)c2c(N)c(C(=O)Nc3ccc(C)c(C)c3)sc2n1	1.1 µg/mL (≈ 3.38 µM)
CCCOc1ccc(N2C(=O)CC(NCC(=O)OCC)C2=O)cc1 (stereo not given)	> 50.2 µg/mL
CCCCn1c(=O)[nH]c2nc3cc(NC(C)=O)ccc3nc2c1=O	2.3 µg/mL (≈ 7.03 µM)
O=C(COC(=O)C1CC1)NCc1ccccc1	> 35 µg/mL
COc1ccc(-c2c(C#N)sc(C(N)=O)c2-c2ccc(OC)cc2)cc1	< 0.4 µg/mL
COc1ccc(C)c2sc(=NC(=O)c3cccc(N4C(=O)CCC4=O)c3)n(C)c12	< 0.3 µg/mL
CC1(C)CC(NC(=O)c2ccc(Br)o2)CC(C)(C)N1	> 49.4 µg/mL
O=C(Nc1ccccc1N1CCOCC1)c1ccncc1	> 42.5 µg/mL
O=C(Cn1nc(Cl)nc1Cl)c1ccccc1	> 38.4 µg/mL
CCCCNC(=O)NS(=O)(=O)c1ccc(C)cc1	> 40.6 µg/mL
COc1ccc(CC(=O)N2CCN(c3ccccc3)CC2)cc1OC	49.9 µg/mL (≈ 147 µM)
CCOC(=O)c1c(N)sc2c1CCCC2=O	34.7 µg/mL (≈ 145 µM)
O=[N+]([O-])c1ccccc1S(=O)(=O)Nc1ncccn1	> 42 µg/mL
O=C(c1cc([N+](=O)[O-])ccc1Cl)N1CCc2ccccc21	1.6 µg/mL (≈ 5.29 µM)
CCN1CCN(CC(=O)N2c3ccccc3Sc3ccccc32)CC1	> 53 µg/mL
COc1ccc(NC(C)=O)cc1NC(=O)c1ccc(Cl)cc1	17.2 µg/mL (≈ 54 µM)
CC(C)(C)C(=O)OCc1nc(-c2ccc(Cl)cc2)cs1	< 0.7 µg/mL
O=C(NC1CCCC1)C(c1cc2c(cc1[N+](=O)[O-])OCO2)N1CCCC1 (stereo not given)	40.6 µg/mL (≈ 112 µM)

Structure (SMILES)	solubility kinetic
Cc1cc(Cl)ccc1C(=O)C1CCCN(Cc2ccon2)C1 (stereo not given)	46.3 µg/mL (≈ 145 µM)
CC(=O)c1cccc(NC(=S)N2c3ccccc3CC2C)c1 (stereo not given)	1.4 µg/mL (≈ 4.51 µM)
CCN1C(C#N)=C(C#N)N=C(C)CC1(C)C	29.8 µg/mL (≈ 138 µM)
CCC1(C)CC(=O)N(c2ccc(F)c(Cl)c2)C(=O)C1	14 µg/mL (≈ 49.3 µM)
CC(C)C1C(=O)CC(c2ccccc2)NC1c1ccccc1 (stereo not given)	1.6 µg/mL (≈ 5.45 µM)
Cc1cc(=O)[nH]c(-c2ccccc2OC(F)(F)F)n1	> 40.5 µg/mL
O=C(O)c1ccc(S(=O)(=O)c2ccc([N+](=O)[O-])cc2[N+](=O)[O-])cc1	> 52.8 µg/mL
Cc1occc1C(=O)NCc1nc(-c2ccccc2)no1	> 42.5 µg/mL
CC(=O)c1c(C)n(Cc2ccccc2)c2ccc(O)cc12	0.7 µg/mL (≈ 2.51 µM)
CCCn1c(SCC(=O)Nc2ccc(Cl)cc2)n[nH]c1=O	> 49 µg/mL
CCOc1ccc(Cn2c(=O)oc3ccccc32)cc1	< 0.6 µg/mL
CCCCCCC1CC(=O)NC(=O)N1 (stereo not given)	27.8 µg/mL (≈ 140 µM)
Cn1c(SCc2ccccc2)nc(N)c(N=O)c1=O	13.6 µg/mL (≈ 49.2 µM)
C=CCn1cnnc1SCC(=O)N(C1CCCCC1)C1CCS(=O)(=O)C1 (stereo not given)	> 59.8 µg/mL
Cc1cc(C)c(NC(=S)NC(CO)(CO)CO)c(C)c1	> 44.8 µg/mL
CC1=NOC(=O)/C1=C\c1ccc2c(c1)OCO2	32 µg/mL (≈ 138 µM)
c1ccc(CNc2cncnc2)cc1	26.4 µg/mL (≈ 143 µM)
COCCSc1ccccc1C(=O)N1CCc2ccccc21	44.5 µg/mL (≈ 142 µM)
CC(C)(C)OC(=O)NC(CC(=O)OCc1ccccc1)C(=O)O (stereo not given)	> 48.5 µg/mL
COc1cccc(CNC(=O)c2csc3c2CCCC3)c1	19.5 µg/mL (≈ 64.7 µM)
